Test results as given in BigSolDB 2.1.

CCn1cc(C(=O)O)c(=O)c2cc(F)c(N3CCNC(C)C3)c(F)c21.Cl (stereo not given)
solubility (mole fraction)
Conditions	in ethanol	in water
296 K	–	0.00088
298.2 K	3e-05	0.0009
303.2 K	3.2e-05	–
308.2 K	3.8e-05	–
311.7 K	–	0.00099
313.2 K	4.1e-05	–
316.3 K	–	0.00104
318.2 K	4.4e-05	–
318.9 K	–	0.0011
320.5 K	–	0.00112
323.2 K	5e-05	–
328.3 K	–	0.00121
335.9 K	–	0.00129
338.7 K	–	0.00134
340.7 K	–	0.00138
344.2 K	–	0.00145

CCn1cc(C(=O)O)c(=O)c2cc(F)c(N3CCNCC3)cc21
in water
Conditions	solubility (mole fraction)
303.2 K	7.3e-06
308.2 K	9.1e-06
313.2 K	1.12e-05
318.2 K	1.37e-05
323.2 K	1.7e-05
328.2 K	2.05e-05

CCn1nc(C(=O)O)c(=O)c2cc3c(cc21)OCO3
Conditions	solubility (mole fraction)
in ethanol, 300.2 K	5e-05
in ethanol, 303.1 K	6e-05
in ethanol, 311.4 K	8e-05
in ethanol, 315.1 K	0.0001
in ethanol, 319.5 K	0.00011
in ethanol, 321.6 K	0.00013
in ethanol, 325.6 K	0.00015
in ethanol, 329.1 K	0.00018
in ethanol, 334 K	0.0002
in ethanol, 337.2 K	0.00024
in ethanol, 339.8 K	0.00028
in ethanol, 342.8 K	0.00031
in ethanol, 345.6 K	0.00037
in water, 298.2 K	4.2e-06
in water, 303.2 K	5e-06
in water, 308.2 K	5.4e-06
in water, 313.2 K	5.9e-06
in water, 318.2 K	7.1e-06
in water, 323.2 K	9.9e-06

CC1CCc2cc(F)cc3c(=O)c(C(=O)O)cn1c23 (stereo not given)
Conditions	solubility (mole fraction)
in ethanol, 301.9 K	0.00015
in ethanol, 309.9 K	0.00017
in ethanol, 315.2 K	0.00023
in ethanol, 320.7 K	0.00034
in ethanol, 328.7 K	0.00053
in ethanol, 331.7 K	0.00062
in ethanol, 335.5 K	0.00075
in ethanol, 339.1 K	0.00085
in ethanol, 340.5 K	0.00091
in ethanol, 342.1 K	0.00096
in ethanol, 344.2 K	0.00114
in ethanol, 345.5 K	0.0012
in water, 298.2 K	2.1e-05
in water, 303.2 K	2.3e-05
in water, 308.2 K	2.6e-05
in water, 313.2 K	2.8e-05
in water, 318.2 K	3.2e-05
in water, 323.2 K	3.8e-05
